Experimental data taken from US10662164B2, “Non-beta lactam antibiotics” (University of Notre Dame du Lac, priority 2014, dated 2020).
≈ marks a conversion by molar mass, not a printed value. Like-named read-outs stand apart in the source and are kept apart here. Marks after values point to notes of the source that are not given here.

Experiments:
S. aureus ATCC 29213 = assay: MIC determination; assay type: cell-based, Staphylococcus aureus; conditions: for MIC: Staphylococcus aureus
HepG2 cells = assay: XTT cytotoxicity assay; assay type: cell-based; conditions: for IC50: Homo sapiens
Method: We used the XTT assay with HepG2 cells to evaluate the in vitro toxicity of compounds 60b, 60c, 65b, 66b, 75b and 76b (Table 2). […] Compared to the lead 1, indole 75b was 5-fold less toxic.
The XTT cytotoxicity assay was performed in triplicated using HepG2 cells (ATCC HB-8065), as previously described (Tran et al., Am. J. Clin. Dermatol. 2015; doi 10.1007/S40257-015-0125-9). The IC50 values were calculated with GraphPad Prism 5 (GraphPad Software, Inc., San Diego, Calif., USA).

[1] = Fast pharmacokinetic (PK) studies; assay type: in vivo, mouse
Method: To rapidly ascertain the PK properties of the compounds, fast PK studies were conducted. These studies involve administration of the compounds using a limited number of animals (n=2 mice per time point) for a few time points. This allows us to rapidly compare the preliminary PK properties of the compounds, so that full PK studies are conducted only with the most promising compound(s). […] The alkyne substituted pyrazole 66b had the lowest clearance and the highest systemic exposure, as measured by area under the curve (AUC, Table 2).
Female ICR mice (6-8 weeks old, ˜20-g body weight) were used for the PK and peritonitis studies. Animals were purchased from Harlan Laboratories, Inc. (Indianapolis, Ind., USA) and given Teklad 2019 Extruded Rodent Diet and water ad libitum. Mice were maintained in polycarbonate shoebox cages with ¼″ corncob (The Andersons Inc., Maumee, Ohio) and Alpha-dri (Sheperd Specialty Papers, Inc., Richland, Mich.) bedding under 12-h light/12-h dark cycle at 72±2° F.
For fast PK studies, the compounds were dissolved in 10% DMSO/25% Tween-80/65% water at a concentration of 5 mg/mL. The dosing formulations were sterilized by filtration through a 0.2 μm, 13 mm diameter PTFE membrane attached to an Acrodisc syringe filter (Pall Life Sciences, Ann Arbor, Mich., USA). […] Terminal blood was collected at 5 min, 40 min, 2 h, 4 h, and 8 h; blood was centrifuged at 1200 g for 10 min to harvest plasma.
Plasma ([…], aliquot) was mixed with 100 μL of acetonitrile containing internal standard (final concentration 8 μg/mL). After centrifugation at 10000 g for 10 min, the supernatant was analyzed by ultraperformance liquid chromatography (UPLC) with UV detection at 285 nm. A Waters Acquity UPLC System (Waters Corporation, Milford, Mass., USA), consisting of a binary pump, an autosampler, a column heater, and a photodiode array detector was used. An Acquity UPLC C18 1.7 μm, 2.1 mm i.d.×50 mm column was used. Elution was at 0.5 mL/min with 70% A/30% B for 2 min, followed by a 10-min linear gradient to 10% A/90% B, then 70% A/30% B for 2 min, where A=0.1% formic acid/water and B=0.1% formic acid/acetonitrile. Monitoring was by UV detection at 285 nm. Calibration curves for each compound were prepared in control plasma containing internal standard. The concentrations in the PK samples were obtained using peak area ratio to the internal standard and the calibration curve regression analysis parameters. The methods were linear from 0.01 to 100 μg/mL; coefficients of determination R^2 range from 0.98 to 0.99.
The area under the curve (AUC), clearance (CL), volume of distribution (Vd), and terminal half-life were calculated using Phoenix WinNonlin 6.3 (Certara LP, St Louis, Mo., USA) noncompartmental analysis using uniform weighing. Half-lives were estimated from the linear portion of the initial or terminal phase of the concentration-time data by linear regression, where the slope of the line was the rate constant k and t1/2=ln 2/k.

E. faecalis 99 (Van R) = assay: MIC determination; assay type: cell-based; conditions: Enterococcus faecalis; vancomycin-resistant clinical isolate; Tables 1 and 5
[2] = tested on: E. faecium 119-39A (Van S); assay: MIC determination; assay type: cell-based; conditions: Enterococcus faecium
Method in brief: (§1)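 MIC determined by a previously reported procedure against ATCC reference strains and resistant clinical isolates, including vancomycin-resistant E. faecium 106 and S. aureus VRS1.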

S. aureus NRS120 = assay: MIC determination; assay type: cell-based; conditions: Staphylococcus aureus
E. faecium 106 (Van R) = assay: MIC determination; assay type: cell-based; conditions: Enterococcus faecium; vancomycin-resistant clinical isolate; Tables 1 and 5; read-out: MIC
Method in brief: as §1

E. faecalis 201 (Van S) = assay: MIC determination; assay type: cell-based; conditions: Enterococcus faecalis
[3] = tested on: B. licheniformis ATCC 12759; assay: MIC determination; assay type: cell-based; conditions: Bacillus licheniformis, ATCC12759
E. faecalis ATCC 29212 = assay: MIC determination; assay type: cell-based; conditions: Enterococcus faecalis, ATCC29212
S. aureus NRS119 = assay: MIC determination; assay type: cell-based; conditions: Staphylococcus aureus
S. aureus VRS2 = assay: MIC determination; assay type: cell-based; conditions: Staphylococcus aureus
S. aureus ATCC 27660 = assay: MIC determination; assay type: cell-based; conditions: Staphylococcus aureus, ATCC27660
[4] = ATCC29213, Table 3.1 and SAR text, compounds of Schemes 2-4, read-out: S. aureus ATCC 29213 MIC
[5] = HepG2 cells, cytotoxicity, read-out: XTT HepG2 IC50
[6] = single iv dose at 20 mg/kg, mice
[7] = ATCC29213, quality-control, methicillin-susceptible strain, Tables 1 and 5, read-out: MIC
[8] = vancomycin-susceptible clinical isolate, Tables 1 and 5, read-out: MIC
[9] = mecA positive, linezolid-resistant, Tables 1 and 5, read-out: MIC
[10] = quality-control strain, Tables 1 and 5, read-out: MIC
[11] = vancomycin-resistant MRSA (vanA) isolate from Pennsylvania, Tables 1 and 5, read-out: MIC
[12] = mecA positive, resistant to methicillin, oxacillin, tetracycline, Tables 1 and 5, read-out: MIC

Structure (SMILES) | MIC (S. aureus ATCC 29213; [4]) | IC50 (HepG2 cells; [5]) | AUC0-8 h [1, 6] | CL [1, 6] | MIC (S. aureus ATCC 29213; [7]) | MIC (E. faecalis 99 (Van R)) | MIC [2, 8] | MIC (S. aureus NRS120; [9]) | MIC (E. faecium 106 (Van R)) | MIC (E. faecalis 201 (Van S); [8]) | MIC ([3]; Tables 1 and 5, read-out: MIC) | MIC (E. faecalis ATCC 29212; [10]) | MIC (S. aureus NRS119; [9]) | MIC (S. aureus VRS2; [11]) | MIC (S. aureus ATCC 27660; [12]) | further results
FC(F)(F)c1ccc(Oc2ccc(-c3noc(-c4c[nH]cn4)n3)cc2)cc1 [Compound 76b, 5-(1H-Imidazol-4-yl)-3-(4-(4-(trifluoromethyl)phenoxy)phenyl)-1,2,4-oxadiazole] | 2 µg/mL (≈ 5.37 µM) | 31.5 ± 0.5 µg/mL (≈ 84.6 µM) | 2054 µg·min/mL | 9.7 mL/min/kg |  |  |  |  |  |  |  |  |  |  |  | 
FC(F)(F)c1ccc(Oc2ccc(-c3noc(-c4ccc5[nH]ccc5c4)n3)cc2)cc1 [Compound 75b, 5-(1H-Indol-5-yl)-3-(4-(4-(trifluoromethyl)phenoxy)phenyl)-1,2,4-oxadiazole] | 4 µg/mL (≈ 9.49 µM) | 75.7 ± 7.3 µg/mL (≈ 180 µM) | 1283 µg·min/mL | 15.2 mL/min/kg | 2 µg/mL (≈ 4.75 µM) | 16 µg/mL (≈ 38 µM) |  |  |  |  |  |  |  |  |  | fold less toxic than the lead 1 (HepG2 cells; XTT assay, HepG2 cells): 5 fold
Fc1ccc(Oc2ccc(-c3noc(-c4n[nH]cc4Cl)n3)cc2)cc1 [Compound 60c, 5-(4-Chloro-1H-pyrazol-3-yl)-3-(4-(4-fluorophenoxy)phenyl)-1,2,4-oxadiazole] | 0.5 µg/mL (≈ 1.4 µM) | 18.2 ± 2.9 µg/mL (≈ 51 µM) | 446 µg·min/mL | 44.9 mL/min/kg | 1 µg/mL (≈ 2.8 µM) | > 128 µg/mL | > 128 µg/mL | 64 µg/mL (≈ 179 µM) | > 128 µg/mL | > 128 µg/mL | > 128 µg/mL | > 128 µg/mL | 2 µg/mL (≈ 5.61 µM) |  |  | 
CC(C)Nc1c[nH]nc1-c1nc(-c2ccc(Oc3ccc(C(F)(F)F)cc3)cc2)no1 [Compound 65b, N-Isopropyl-3-(3-(4-(4-(trifluoromethyl)phenoxy)phenyl)-1,2,4-oxadiazol-5-yl)-1H-pyrazol-4-amine] |  |  | 1313 µg·min/mL | 15.2 mL/min/kg |  |  |  |  |  |  |  |  |  |  |  | MIC (S. aureus ATCC 29213; ATCC29213): 0.5 µg/mL (≈ 1.16 µM); MIC (S. aureus ATCC 29213; ATCC29213, read-out: S. aureus ATCC 29213 MIC): 0.5 µg/mL (≈ 1.16 µM); MIC (S. aureus VRS2; MRSA): 4 µg/mL (≈ 9.32 µM); MIC (S. aureus ATCC 27660): 0.5 µg/mL (≈ 1.16 µM); MIC [2]: > 128 µg/mL; MIC (S. aureus NRS120): > 128 µg/mL; MIC (E. faecalis 201 (Van S)): > 128 µg/mL; MIC [3]: > 128 µg/mL; MIC (E. faecalis ATCC 29212): > 128 µg/mL; MIC (S. aureus NRS119): 2 µg/mL (≈ 4.66 µM); IC50 (HepG2 cells; HepG2, read-out: XTT HepG2 IC50): 3.9 ± 0.8 µg/mL (≈ 9.08 µM)
C#Cc1c[nH]nc1-c1nc(-c2ccc(Oc3ccc(C(F)(F)F)cc3)cc2)no1 [Compound 66b, 5-(4-Ethynyl-1H-pyrazol-3-yl)-3-(4-(4-(trifluoromethyl)phenoxy)phenyl)-1,2,4-oxadiazole] | 0.25 µg/mL (≈ 0.631 µM) | 9.8 ± 4 µg/mL (≈ 24.7 µM) | 8261 µg·min/mL | 2.4 mL/min/kg |  | > 128 µg/mL |  | > 128 µg/mL |  | > 128 µg/mL | > 128 µg/mL | > 128 µg/mL | 32 µg/mL (≈ 80.7 µM) | 0.5 µg/mL (≈ 1.26 µM) | 0.5 µg/mL (≈ 1.26 µM) | S. aureus ATCC 29213 MIC (S. aureus ATCC 29213; Table 3.1, compounds of Schemes 2-4): 0.25 µg/mL
FC(F)(F)c1ccc(Oc2ccc(-c3noc(-c4n[nH]cc4Cl)n3)cc2)cc1 [Compound 60b, 5-(4-Chloro-1H-pyrazol-3-yl)-3-(4-(4-(trifluoromethyl)phenoxy)phenyl)-1,2,4-oxadiazole] | 1 µg/mL (≈ 2.46 µM) | 24.1 ± 1.6 µg/mL (≈ 59.3 µM) | 910 µg·min/mL | 22.0 mL/min/kg |  | > 128 µg/mL | > 128 µg/mL | 64 µg/mL (≈ 157 µM) | > 128 µg/mL | > 128 µg/mL | > 128 µg/mL | > 128 µg/mL |  | 0.5 to 1 µg/mL (≈ 1.23 to 2.46 µM) | 2 µg/mL (≈ 4.92 µM) | 
Oc1ccc(-c2nc(-c3ccc(Oc4ccc(C(F)(F)F)cc4)cc3)no2)cc1 [Compound 1] | 1 µg/mL (≈ 2.51 µM) | 25.8 µg/mL (≈ 64.8 µM) |  |  | 2 µg/mL (≈ 5.02 µM) | 2 µg/mL (≈ 5.02 µM) | 1 µg/mL (≈ 2.51 µM) | 2 µg/mL (≈ 5.02 µM) | 2 µg/mL (≈ 5.02 µM) | 2 µg/mL (≈ 5.02 µM) | 2 µg/mL (≈ 5.02 µM) | 2 µg/mL (≈ 5.02 µM) | 2 µg/mL (≈ 5.02 µM) | 2 µg/mL (≈ 5.02 µM) | 2 µg/mL (≈ 5.02 µM) | AUC(0-t) ([1]; ICR, mouse, plasma, compound 1 at 50 mg/kg iv, read-out: AUC0-8 h): 44200 ng·h/mL; CL ([1]; compound 1 at 50 mg/kg iv): 18.9^c mL/min/kg
